{"source": "patent US11795190B2", "about": "“D-glycero-B-D-heptose 1-phosphate (HMP) conjugates and use for targeted immune modulation” (NATIONAL RESEARCH COUNCIL OF CANADA, priority 2017, dated 2023)", "key": {"[1]": {"system": "human macrophage cells (THP-1)", "assay": "IL-8 ELISA in THP-1 cells after digitonin-permeabilised stimulation", "assay_type": "cell-based", "details": "FIG. 15, higher (150 μM) concentrations, digitonin 20 min, IL-8 after 6 hours", "procedure": "FIG. 15. Stimulation of human macrophages by compounds/products according to the invention. Human macrophage cells (THP-1) were stimulated for 20 minutes in permeabilization buffer (5 μg/mL digitonin) in the presence of water, 39.8 μM of the Nod1 agonist C12-iE-DAP (which stimulates in a TIFA-independent manner), or either 30 μM or 150 μM of synthetic compound according to the invention. Treatment was removed, cells were washed, and cells were incubated for 6 hours in complete media before the IL-8 levels in culture supernatants were measured by ELISA. The results are the mean and standard error of the mean of three technical replicates. Nod1 agonist: C12-iE-DAP (20 μg/ml, 39.8 μM); JS-7: JS-7:D-glycero-β-D-manno-heptose-phosphate; JS-10: 7-O-(Aminoethyl)-D-glycero-β-D-manno-heptopyranose phosphate; JS-14: Biotin-7-O-(aminoethyl)-D-glycero-β-D-manno-heptopyranose phosphate."}, "[2]": {"system": "TIFA knockout (TIFA KO) HEK 293T cells encoding an NF-κB-driven luciferase reporter gene", "assay": "NF-κB-driven luciferase reporter assay in TIFA knockout HEK 293T cells", "assay_type": "cell-based, human", "procedure": "(§1) FIGS. 10A-B. Effect of chemically synthesised analogues on human embryonic kidney cells (HEK 293T) encoding an NF-κB-driven luciferase reporter gene. NF-κB luciferase activity was measured in wild type (WT) or TIFA knockout (TIFA KO) cells treated with compounds in the presence of digitonin for 20 min, washed, and then cultured in normal medium without the synthetic compounds for 6 hrs after treatment, before luciferase activity was measured. (A) Cells were treated with 10 μg/mL of the indicated compound. Data are means±standard error mean of technical triplicates. (B) Cells were treated with two different molar concentrations of compound (30 μM or 150 μM). Two batches of DD-β-HBP and DD-β-HMP synthesized independently of one another were tested (batch #1 and batch #2) to assess consistency of the chemical synthesis. Data are means±standard error mean of technical triplicates and are representative of three independent experiments. JS-12: D-glycero-D-manno-heptose; JS-2: D-glycero-D-manno-heptose 7-phosphate; JS-7:D-glycero-β-D-manno-heptose-phosphate; JS-8: D-glycero-α-D-manno-heptose-phosphate; JS-9: β-D-mannose phosphate; JS-6:D-glycero-β-D-manno heptose 1,7-biphosphate; JS-5: D-glycero-α-D-manno heptose 1,7-biphosphate."}, "[3]": {"system": "HCT 116 cells deficient in TIFA protein expression (TIFA KO)", "assay": "IL-8 ELISA in TIFA knockout HCT 116 cells", "assay_type": "cell-based, human", "details": "TIFA KO HCT 116", "procedure": "(§2) Wild type (WT) or TIFA knockout (TIFA KO) cells were treated with compounds in the presence of digitonin for 20 min, treatment was removed, cells were washed and then cultured in normal medium without the synthetic compounds for 6 hr before IL-8 levels in culture supernatants were measured by ELISA. (A) Cells were treated with water or 10 μg/mL of the indicated compound. Data are means±standard error mean of technical triplicates. (B) Cells were treated with the NOD1 agonist C12-iE-DAP (39.8 μM) or with two different molar concentrations of compounds (30 μM or 150 μM). Two batches of dd-β-HBP and dd-β-HMP synthesized independently of one another were tested (batch #1 and batch #2) to assess consistency of the chemical synthesis. Data are means±standard error mean of two (150 μM treatment) or three (all other treatments) independent experiments. Nod1 agonist: C12-iE-DAP (20 μg/ml, 39.8 μM); JS-12: D-glycero-D-manno-heptose; JS-2: D-glycero-D-manno-heptose 7-phosphate; JS-7:D-glycero-β-D-manno-heptose-phosphate; JS-8: d-glycero-α-d-manno-heptose-phosphate; JS-9: β-d-mannose phosphate; JS-6:d-glycero-β-d-manno heptose 1,7-biphosphate; JS-5: d-glycero-α-d-manno heptose 1,7-biphosphate.\n(§3) FIG. 11. Stimulation of human colonic epithelial cells by compounds/products according to the invention. Human colonic epithelial cells (HCT 116) that were either wild type (WT) or deficient in TIFA protein expression (knockout, KO) were stimulated for 20 minutes in permeabilization buffer (5 μg/mL digitonin) in the presence of water or 10 μg/mL, 30 μg/mL, or 50 μg/mL of indicated synthetic compounds according to the invention. Treatment was removed, cells were washed, and cells were incubated for 6 hours in complete media before IL-8 levels in culture supernatants was measured by ELISA. The results are the mean±standard error of the mean of three technical replicates. JS-10: 7-O-(Aminoethyl)-D-glycero-β-D-manno-heptopyranose phosphate; JS-11: 7-O-(Aminoethyl) -D-glycero-D-manno-heptopyranose; JS-12: D-glycero-D-manno-heptose; Js-13: pH-Rhodo -7-O-(aminoethyl)-D-glycero-β-D-manno-heptopyranose phosphate.\n(§4) FIG. 13. Stimulation of human colonic epithelial cells by compounds/products according to the invention. Human colonic epithelial cells (HCT 116) that were either wild type (WT) or deficient in TIFA protein expression (knockout, TIFA KO) were stimulated for 20 minutes in permeabilization buffer (5 μg/mL digitonin) in the presence of water, 20 μg/mL of the Nod1 agonist C12-iE-DAP (39.8 μM, which induces inflammation in a TIFA-independent manner) or 30 μM or 150 μM of synthetic compound according to the invention. Treatment was removed, cells were washed, and cells were incubated for 6 hours in complete media before IL-8 levels in culture supernatants were measured by ELISA. The results are the mean±standard error of the mean of two (150 μM treatment) or three (all other treatments) independent experiments. #=none detected, JS-10: 7-O-(Aminoethyl)-d-glycero-β-d-manno-heptopyranose phosphate; JS-14: Biotin-7-O-(aminoethyl)-d-glycero-β-d-manno-heptopyranose phosphate, Nod1 agonist: C12-iE-DAP (20 μg/ml, 39.8 μM).\nas §4, with “16.” for “13.”, “of” for “of the mean of two (150 μM treatment) or”, “technical replicates. […]” for “(all other treatments) independent experiments. #=none detected, JS-10: 7-O-(Aminoethyl)-d-glycero-β-d-manno-heptopyranose phosphate; JS-14: Biotin-7-O-(aminoethyl)-d-glycero-β-d-manno-heptopyranose phosphate, Nod1 agonist: C12-iE-DAP (20 μg/ml, 39.8 μM).”"}, "[4]": {"system": "human colonic epithelial cells (HCT 116), wild type", "assay": "IL-8 ELISA in wild type HCT 116 cells after digitonin-permeabilised stimulation", "assay_type": "cell-based", "details": "WT HCT 116, digitonin 20 min", "procedure": "as §2, §3\nFIG. 13. […] Treatment was removed, cells were washed, and cells were incubated for 6 hours in complete media before IL-8 levels in culture supernatants were measured by ELISA. The results are the mean±standard error of the mean of two (150 μM treatment) or three (all other treatments) independent experiments. #=none detected, JS-10: 7-O-(Aminoethyl)-d-glycero-β-d-manno-heptopyranose phosphate; JS-14: Biotin-7-O-(aminoethyl)-d-glycero-β-d-manno-heptopyranose phosphate, Nod1 agonist: C12-iE-DAP (20 μg/ml, 39.8 μM).\nFIG. 16. […] Treatment was removed, cells were washed, and cells were incubated for 6 hours in complete media before IL-8 levels in culture supernatants were measured by ELISA. […]"}, "[5]": {"system": "HEK 293T cells encoding an NF-κB-driven luciferase reporter gene", "assay": "NF-κB-driven luciferase reporter assay in HEK 293T cells", "assay_type": "cell-based, human", "details": "digitonin 20 min; for inflammatory NF-κB response (luciferase activity): FIG. 10, WT HEK 293T, 10 μg/mL or 30 μM/150 μM, luciferase after 6 hrs", "procedure": "as §1\nFIG. 12. Effects of compounds/products according to the invention on HEK 293T cells encoding an NF-κB-driven luciferase reporter gene. HEK 293T cells were transfected with a plasmid encoding an NF-κB-driven luciferase reporter. After 24 hours, cells were stimulated for 20 minutes in permeabilization buffer (5 μg/mL digitonin) in the presence of water or 10 μg/mL, 30 μg/mL, or 50 μg/mL of indicated synthetic compounds according to the invention. Treatment was removed; cells were washed and incubated for 6 hours incomplete medium. A luciferase assay was then performed. JS-12a control: D-glycero-D-manno heptose. The results are the means±standard error of the mean of three technical replicates. JS-10: 7-O-(Aminoethyl)-D-glycero-β-D-manno-heptopyranose phosphate; JS-11: 7-O-(Aminoethyl)-D-glycero-D-manno-heptopyranose; JS-12: D-glycero-D-manno-heptose; Js-13: pH-Rhodo-7-O-(aminoethyl)-D-glycero-β-D-manno-heptopyranose phosphate.\nFIG. 14. Effects of compounds/products according to the invention on HEK 293T cells encoding an NF-κB-driven luciferase reporter gene. HEK 293T cells were transfected with a plasmid encoding an NF-κB-driven luciferase reporter. After 24 hours, cells were stimulated for 20 minutes in permeabilization buffer (5 μg/mL digitonin) in the presence of water, or either 30 μM or 150 μM of indicated synthetic compounds according to the invention. Treatment was removed; cells were washed and incubated for 6 hours in complete medium. A luciferase assay was then performed. […]"}, "[6]": {"details": "FIG. 13, 30 μM or 150 μM (Nod1 agonist 39.8 μM)"}, "[7]": {"details": "FIG. 17, TIFA KO cells, 30 μM or 150 μM"}, "[8]": {"details": "FIG. 16, 30 μM or 150 μM (Nod1 agonist 39.8 μM)"}, "[9]": {"details": "FIG. 10, TIFA KO HEK 293T, 10 μg/mL or 30 μM/150 μM"}, "[10]": {"details": "FIG. 9, 10 μg/mL or 30 μM/150 μM"}, "[11]": {"details": "FIG. 9, 10 μg/mL or 30 μM/150 μM, IL-8 after 6 hr"}}, "data": [{"compound": "O=C(CCCCC1SCC2NC(=O)NC21)NCCOC[C@@H](O)C1O[C@@H](OP(=O)([O-])[O-])C(O)C(O)[C@@H]1O.[Na+].[Na+]", "note": "(stereo partly drawn) [JS-14a]", "values": [{"measurement": "inflammatory response (IL-8 in culture supernatant)", "setting": "[1]", "result": "stimulate an inflammatory response"}, {"measurement": "activity in TIFA KO cells (NF-κB luciferase), TIFA dependence", "setting": "[2]; FIG. 14, TIFA KO cells, 30 μM or 150 μM", "result": "relative absence of activity"}, {"measurement": "activity in TIFA KO cells (IL-8), TIFA dependence", "setting": "[3]; [6]", "result": "relative absence of activity"}]}, {"compound": "pH-Rhodo-7-O-(aminoethyl)-D-glycero-β-D-manno-heptopyranose phosphate [JS-13a]", "values": [{"measurement": "activity in TIFA KO cells (NF-κB luciferase), TIFA dependence", "setting": "[2]; FIG. 12, TIFA KO cells, 10, 30 or 50 μg/mL", "result": "relative absence of activity"}, {"measurement": "activity in TIFA KO cells (IL-8), TIFA dependence", "setting": "[3]; FIG. 11, 10, 30 or 50 μg/mL", "result": "relative absence of activity"}, {"measurement": "inflammatory response (IL-8 in culture supernatant)", "setting": "[4]; FIG. 11, 10, 30 or 50 μg/mL, IL-8 after 6 hours", "result": "strong inflammatory response"}, {"measurement": "inflammatory response (NF-κB luciferase)", "setting": "[5]; FIG. 12, HEK 293T, 10, 30 or 50 μg/mL, luciferase after 6 hours", "result": "strong inflammatory response"}]}, {"compound": "Fluorescein-7-O-(aminoethyl)-D-glycero-β-D-manno-heptopyranose phosphate [JS-25a]", "values": [{"measurement": "activity in TIFA KO cells (NF-κB luciferase), TIFA dependence", "setting": "[2]; [7]", "result": "relative absence of activity"}, {"measurement": "activity in TIFA KO cells (IL-8), TIFA dependence", "setting": "[3]; [8]", "result": "relative absence of activity"}]}, {"compound": "O=P(O)(O)OC[C@@H](O)[C@H]1O[C@@H](OP(=O)(O)O)[C@@H](O)[C@@H](O)[C@@H]1O", "note": "[JS6, D-glycero-β-D-manno heptose 1,7-biphosphate, reference compound]", "values": [{"measurement": "activity in TIFA KO cells (NF-κB luciferase), TIFA dependence", "setting": "[2]; [9]", "result": "relative absence of activity"}, {"measurement": "activity in TIFA KO cells (IL-8), TIFA dependence", "setting": "[3]; [10]", "result": "relative absence of activity"}, {"measurement": "inflammatory response (IL-8 in culture supernatant)", "setting": "[4]; [11]", "result": "inflammatory response"}, {"measurement": "inflammatory NF-κB response (luciferase activity)", "setting": "[5]", "result": "inflammatory NF-κB response"}]}, {"compound": "CCCCCCCCCCCC(=O)N[C@H](CCC(=O)NC(CCCC(N)C(=O)O)C(=O)O)C(=O)O", "note": "(stereo partly drawn) [Nod1 agonist, C12-iE-DAP, reference compound]", "values": [{"measurement": "activity in TIFA KO cells (IL-8), TIFA dependence", "setting": "[3]; [6]", "result": "not TIFA-dependent"}, {"measurement": "activity in TIFA KO cells (IL-8), TIFA dependence", "setting": "[3]; [8]", "result": "not TIFA-dependent"}]}, {"compound": "O=C(CCCCC1SCC2NC(=O)NC21)NCCOCCOCCOCCOCCC(=O)NCCOC[C@@H](O)C1O[C@@H](OP(=O)(O)O)C(O)C(O)[C@@H]1O", "note": "(stereo partly drawn) [JS-24a, Biotin-PEG4-7-O-(aminoethyl)-D-glycero-β-D-manno-heptopyranose phosphate]", "values": [{"measurement": "activity in TIFA KO cells (NF-κB luciferase), TIFA dependence", "setting": "[2]; [7]", "result": "relative absence of activity"}, {"measurement": "activity in TIFA KO cells (IL-8), TIFA dependence", "setting": "[3]; [8]", "result": "relative absence of activity"}]}, {"compound": "O=P(O)(O)O[C@@H]1O[C@H]([C@H](O)CO)[C@@H](O)[C@H](O)[C@@H]1O", "note": "[JS7, D-glycero-β-D-manno-heptose-phosphate]", "values": [{"measurement": "activity in TIFA KO cells (NF-κB luciferase), TIFA dependence", "setting": "[2]; [9]", "result": "relative absence of activity"}, {"measurement": "activity in TIFA KO cells (IL-8), TIFA dependence", "setting": "[3]; [10]", "result": "relative absence of activity"}, {"measurement": "inflammatory response (IL-8 in culture supernatant)", "setting": "[4]; [11]", "result": "inflammatory response similar to that apparent with DD-β-HBP (JS6)"}, {"measurement": "inflammatory NF-κB response (luciferase activity)", "setting": "[5]", "result": "inflammatory NF-κB response similar to that apparent with DD-β-HBP (JS6)"}]}]}
